From ChEMBL document CHEMBL4406859, “Antitumor and antiviral activities of 4-substituted 1,2,3-triazolyl-2,3-dibenzyl-L-ascorbic acid derivatives” (Eur J Med Chem, 2019) come the findings set out here.

Active and inactive are the calls of the source. No cut-off for these calls is given here.

Usually EC50 stands for the midpoint of the concentration-response curve.

For the first assay, the system named is Vaccinia virus. The experiment in a line: Antiviral activity against Vaccinia virus infected in human HELF cells assessed as reduction in virus-induced cytopathogenicity incubated for 7 days by microscopic analysis. The format is functional, organism-based. Particulars: Orthopoxvirus vaccinia.
Consider `CCCCCCCCCCc1cn(C[C@H](O)[C@H]2OC(=O)C(OCc3ccccc3)=C2OCc2ccccc2)nn1`, for which the result was inactive.
On the same count and under the same terms, the entry for `O=C1O/C(=C\Cn2cc(-c3ccc(Br)cc3)nn2)C(OCc2ccccc2)=C1OCc1ccccc1` is “inactive”.
Same read-out and setting: as for `O=C1O[C@H]([C@@H](O)Cn2cc(C3CC3)nn2)C(OCc2ccccc2)=C1OCc1ccccc1`, the entry is “inactive”.
The same measure, in the same setting: the entry for `C[Si](C)(C)c1cn(C[C@H](O)[C@H]2OC(=O)C(OCc3ccccc3)=C2OCc2ccccc2)nn1` is “inactive”.
On to `CCCCc1cn(C[C@H](O)[C@H]2OC(=O)C(OCc3ccccc3)=C2OCc2ccccc2)nn1`, for which the result was inactive.
The same measure, in the same setting: as for `O=C1O/C(=C\Cn2cc(CCO)nn2)C(OCc2ccccc2)=C1OCc1ccccc1`, the entry is “inactive”; as for `CC(C)(C)c1cn(C/C=C2\OC(=O)C(OCc3ccccc3)=C2OCc2ccccc2)nn1`, “inactive”; as for `Cc1ccc(-c2cn(C/C=C3\OC(=O)C(OCc4ccccc4)=C3OCc3ccccc3)nn2)cc1`, “inactive”.
Still for that read-out and setting: as for `CC(C)(C)c1cn(C[C@H](O)[C@H]2OC(=O)C(OCc3ccccc3)=C2OCc2ccccc2)nn1`, the entry is “inactive”; as for `O=C1O/C(=C\Cn2cc(-c3cc(F)cc(F)c3)nn2)C(OCc2ccccc2)=C1OCc1ccccc1`, “inactive”; as for `COc1ccccc1-c1cn(C/C=C2\OC(=O)C(OCc3ccccc3)=C2OCc2ccccc2)nn1`, “inactive”.
Still for that read-out and setting: the entry for `O=C1O/C(=C\Cn2cc(-c3cccc(O)c3)nn2)C(OCc2ccccc2)=C1OCc1ccccc1` is “inactive”; for `COc1ccc(-c2cn(C/C=C3\OC(=O)C(OCc4ccccc4)=C3OCc3ccccc3)nn2)cc1` it is “inactive”.

Staying with this assay, now noted: Orthopoxvirus vaccinia, 168 h.
Regarding `CCCCc1cn(C/C=C2\OC(=O)C(OCc3ccccc3)=C2OCc2ccccc2)nn1`, the EC50 was > 100 µM.
Same read-out and setting: as for `O=c1[nH]c(=O)n([C@H]2C[C@H](O)[C@@H](CO)O2)cc1/C=C/Br` [BRIVUDINE], the figure is 85 µM.
Still for that read-out and setting: the figure for `Nc1nc2c(ncn2COCCO)c(=O)[nH]1` [ACYCLOVIR] is > 250 µM; for `Nc1nc(O)c2ncn(COC(CO)CO)c2n1` [GANCICLOVIR] it is > 100 µM.
